Earlier results, collected in US20040167145A1, “Active ingredient combination for the pharmacological therapy of nicotine dependence” (priority 2001, published 2004).

Details: clinical studies; compared with 8% for placebo

CC(NC(C)(C)C)C(=O)c1cccc(Cl)c1 (stereo not shown) [bupropion]
1-year abstinence rate: 28%
